Test results from ChEMBL document CHEMBL5506010, “Butyrylcholinesterase-Activated Near-Infrared Fluorogenic Probe for In Vivo Theranostics of Alzheimer's Disease” (J Med Chem, 2024).
Activity calls are given as the source filed them. No cut-off for these calls is given here.

Assays:
[1] = Neurotoxicity in mouse HT-22 cells assessed as reduction in cell viability at 50 uM; format: toxicity, cell-based; conditions: ht-22, 50 µM
[2] = tested on: SH-SY5Y; assay: Neuroprotective activity against amyloid-beta (1 to 42)-induced human SH-SY5Y cells assessed as increase in ACh level in cell lysate at 10 to 20 uM incubated for 24 hrs by ELISA; format: functional, cell-based; conditions: dose 10-20 µM
[3] = biological target: Cholinesterase (Mus musculus) (UniProt Q03311); assay: Binding affinity to BChE in mouse HT-22 cells at 10 uM incubated for 1 hrs by fluorescence based confocal laser scanning microscopic analysis; format: cell-based
Sequence of Cholinesterase (Mus musculus) (Q03311 whole entry): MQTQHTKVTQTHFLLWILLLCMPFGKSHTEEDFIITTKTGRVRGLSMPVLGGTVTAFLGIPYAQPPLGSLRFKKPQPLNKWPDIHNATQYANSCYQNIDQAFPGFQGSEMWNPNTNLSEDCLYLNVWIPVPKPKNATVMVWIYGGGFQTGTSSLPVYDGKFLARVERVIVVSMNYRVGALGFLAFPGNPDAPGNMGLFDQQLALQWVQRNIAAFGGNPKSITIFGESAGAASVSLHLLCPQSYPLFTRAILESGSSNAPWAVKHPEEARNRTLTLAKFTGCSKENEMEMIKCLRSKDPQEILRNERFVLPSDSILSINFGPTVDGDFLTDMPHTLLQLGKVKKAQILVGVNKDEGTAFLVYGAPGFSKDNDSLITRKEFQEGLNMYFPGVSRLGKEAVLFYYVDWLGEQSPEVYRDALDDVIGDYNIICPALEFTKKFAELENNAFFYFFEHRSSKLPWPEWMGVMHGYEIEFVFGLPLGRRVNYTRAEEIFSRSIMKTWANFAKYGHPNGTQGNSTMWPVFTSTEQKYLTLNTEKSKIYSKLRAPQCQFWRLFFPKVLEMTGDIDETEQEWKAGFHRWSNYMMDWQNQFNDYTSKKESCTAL

[4] = biological target: T1, Acetylcholinesterase (Homo sapiens, UniProt P22303); assay: Binding affinity to AChE (unknown origin) by fluorescence analysis
T1 sequence (P22303 whole entry): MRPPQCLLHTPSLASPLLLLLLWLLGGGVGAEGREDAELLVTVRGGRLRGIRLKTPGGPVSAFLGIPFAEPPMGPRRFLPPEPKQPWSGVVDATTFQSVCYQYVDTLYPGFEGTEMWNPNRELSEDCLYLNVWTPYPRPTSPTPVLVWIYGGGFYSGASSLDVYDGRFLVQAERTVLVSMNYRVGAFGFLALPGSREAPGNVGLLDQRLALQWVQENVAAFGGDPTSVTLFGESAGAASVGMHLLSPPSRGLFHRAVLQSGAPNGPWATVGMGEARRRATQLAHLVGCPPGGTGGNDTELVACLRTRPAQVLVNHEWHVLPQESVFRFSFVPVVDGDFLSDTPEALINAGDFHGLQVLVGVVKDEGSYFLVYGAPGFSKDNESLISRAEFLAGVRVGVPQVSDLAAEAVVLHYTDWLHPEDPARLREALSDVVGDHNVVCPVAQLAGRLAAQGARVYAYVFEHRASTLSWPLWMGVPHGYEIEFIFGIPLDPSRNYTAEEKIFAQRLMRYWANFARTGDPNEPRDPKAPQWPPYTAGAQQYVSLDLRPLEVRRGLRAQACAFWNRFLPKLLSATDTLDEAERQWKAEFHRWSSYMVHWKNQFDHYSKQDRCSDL

[5] = tested on: PC-12; assay: Binding affinity to BChE in rat PC-12 cells assessed as increase in fluorescence intensity at 10 uM incubated for 24 hrs by fluorescence based confocal laser scanning microscopic analysis; format: cell-based
[6] = Stability of compound in male ICR mouse brain at 100 uM, iv measured after 30 to 1440 mins by fluorescence microplate reader; format: ADME, organism-based; conditions: time 30-1440 min
[7] = biological target: T2, Cholinesterase (Homo sapiens, UniProt P06276); assay: Inhibition of human BChE using butyrylthiocholineiodide as substrate preincubated for 5 mins followed by substrate addition and measured immediately by Ellmans method
T2 sequence (P06276 whole entry): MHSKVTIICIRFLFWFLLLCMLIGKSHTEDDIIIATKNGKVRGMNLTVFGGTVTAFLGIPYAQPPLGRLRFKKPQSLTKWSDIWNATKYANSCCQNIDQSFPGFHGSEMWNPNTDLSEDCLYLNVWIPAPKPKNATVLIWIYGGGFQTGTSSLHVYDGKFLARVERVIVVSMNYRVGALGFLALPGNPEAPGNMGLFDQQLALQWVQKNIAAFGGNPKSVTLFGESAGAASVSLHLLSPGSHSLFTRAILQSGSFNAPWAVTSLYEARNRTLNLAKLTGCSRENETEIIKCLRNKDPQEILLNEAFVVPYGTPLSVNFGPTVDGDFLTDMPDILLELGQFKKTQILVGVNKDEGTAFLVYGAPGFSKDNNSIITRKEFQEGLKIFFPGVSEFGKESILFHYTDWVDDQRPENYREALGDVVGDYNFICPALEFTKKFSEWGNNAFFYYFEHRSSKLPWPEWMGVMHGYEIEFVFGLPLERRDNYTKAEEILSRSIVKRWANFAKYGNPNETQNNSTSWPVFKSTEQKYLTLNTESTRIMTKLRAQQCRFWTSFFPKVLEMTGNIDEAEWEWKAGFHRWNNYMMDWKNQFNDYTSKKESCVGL

[8] = biological target: T2, Cholinesterase; assay: Binding affinity to BChE (unknown origin) in PBS assessed as fold change in fluorescence intensity at 710 nm by fluorescence spectra analysis
[9] = Drug uptake in HEK293T cells transfected with BChE siRNA assessed as increase in fluorescence intensity by fluorescence based confocal laser scanning microscopic analysis; format: ADME, cell-based; conditions: human, hek-293t
[10] = biological target: T2, Cholinesterase; assay: Binding affinity to BChE (unknown origin) in PBS assessed as red-shift in maximum absorption to 680 nm by UV/vis absorption analysis
[11] = biological target: T2, Cholinesterase; assay: Binding affinity to BChE (unknown origin) assessed as enzyme mediated compound hydrolysis measured after 1 min by HPLC analysis relative to control; set-up: scale not given: the % may be the effect or the level left
[12] = Permeability of compound incubated for 18 hrs by PAMPA-BBB based UV plate spectroscopic reader analysis; format: ADME; conditions: read-out: permeability
[13] = biological target: T2, Cholinesterase; assay: Binding affinity to BChE (unknown origin) in PBS assessed as maximum emission wavelength at 710 nm by fluorescence spectra analysis
[14] = biological target: T2, Cholinesterase; assay: Binding affinity to BChE in human LN-229 cells at 10 uM incubated for 1 hrs by fluorescence based confocal laser scanning microscopic analysis; format: cell-based
[15] = Drug accumulation in brain of APP/PS1 transgenic AD-mouse model at 100 uM, iv measured at 5 to 60 mins by fluorescence imaging analysis; format: ADME, organism-based; conditions: in vivo, time 5-60 min
[16] = tested on: Mus musculus; assay: Antialzheimer activity in APP/PS1 transgenic AD mouse model assessed as improvement in memory administered intravenously once every 2 days for 10 times followed by morris water maze training from day 21 to 25 and measured on day 26 by Morris water maze test; format: functional, organism-based; conditions: route iv, time 26.0 day
[17] = biological target: T2, Cholinesterase; assay: Binding affinity to BChE (unknown origin) in PBS assessed as […] at 680 nm by UV/vis absorption analysis
[18] = Selectivity ratio of fluorescence intensity for binding affinity to AChE (unknown origin) in PBS to fluorescence intensity for binding affinity to BChE (unknown origin) in PBS
[19] = species: Homo sapiens; assay: Binding affinity to lysozyme (unknown origin) by fluorescence analysis
[20] = Stability of compound in male ICR mouse plasma at 100 uM, iv measured after 30 mins by fluorescence microplate reader; format: ADME, organism-based; conditions: 0.5 h
[21] = Toxicity in APP/PS1 transgenic AD mouse model assessed as effect on body weight administered intravenously once every 2 days for 10 times and measured on day 30; conditions: in vivo, iv, 720 h, time 30 day
[22] = biological target: T2, Cholinesterase; assay: Stability of compound assessed as BChE(unknown origin)-mediated compound hydrolysis at 10 uM by fluorescence based analysis; format: ADME
[23] = biological target: T2, Cholinesterase; assay: Binding affinity to BChE (unknown origin) in PBS assessed as cyan coloured appearance of compound by UV/vis absorption analysis
[24] = tested on: PC-12; assay: Binding affinity to BChE in rat PC-12 cells assessed as increase in fluorescence intensity incubated for 1 hrs by fluorescence based confocal laser scanning microscopic analysis; format: cell-based; conditions: dose 1-10 µM
[25] = Stability of compound at pH 12 measured within 3 mins by microplate reader analysis; format: physicochemical; conditions: buffer, pH 12, 0.05 h
[26] = tested on: SH-SY5Y; assay: Neuroprotective activity against amyloid-beta (1 to 42)-induced human SH-SY5Y cells assessed as decrease in amyloid beta (1 to 42) level in culture medium at 10 to 20 uM incubated for 24 hrs by ELISA; format: functional, cell-based; conditions: dose 10-20 µM
[27] = tested on: PC-12; assay: Binding affinity to BChE in rat PC-12 cells at 10 uM incubated for 1 hrs by fluorescence based confocal laser scanning microscopic analysis; format: cell-based
[28] = biological target: T2, Cholinesterase; assay: Binding affinity to BChE (unknown origin) in PBS assessed as maximum initial reaction rate by fluorometric method
[29] = tested on: Mus musculus; assay: Antialzheimer activity in APP/PS1 transgenic AD mouse model assessed as increase in ACh level administered intravenously once every 2 days for 10 times and measured on day 30 by ELISA; format: functional, organism-based; conditions: route iv, time 30.0 day
[30] = biological target: T2, Cholinesterase; assay: Binding affinity to BChE in human SH-SY5Y cells at 10 uM incubated for 1 hrs by fluorescence based confocal laser scanning microscopic analysis; format: cell-based
[31] = Drug accumulation in brain of APP/PS1 transgenic AD-mouse model at 100 uM, iv measured after 24 hrs […] by fluorescence imaging analysis; format: ADME, organism-based; conditions: in vivo
[32] = tested on: SH-SY5Y; assay: Neuroprotective activity against amyloid-beta (1 to 42)-induced cell death in human SH-SY5Y cells assessed as increase in cell survival at 10 to 50 uM preincubated with compound for 2 hrs followed by amyloid beta (1 to 42) addition and measured after 24 hrs by MTT assay; format: functional, cell-based; conditions: dose 10-50 µM, time 26.0 hrs
[33] = tested on: SH-SY5Y; assay: Neuroprotective activity against amyloid-beta (1 to 42)-induced human SH-SY5Y cells assessed as decrease in amyloid beta (1 to 42) level in cell lysate at 10 to 20 uM incubated for 24 hrs by ELISA; format: functional, cell-based; conditions: dose 10-20 µM
[34] = tested on: Mus musculus; assay: Antialzheimer activity in APP/PS1 transgenic AD mouse model assessed as decrease in amyloid beta (1 to 42) level administered intravenously once every 2 days for 10 times and measured on day 30 by ELISA; format: functional, organism-based; conditions: route iv, time 30.0 day
[35] = tested on: SH-SY5Y; assay: Neuroprotective activity against amyloid-beta (1 to 42)-induced human SH-SY5Y cells assessed as increase in ACh level in culture medium at 10 to 20 uM incubated for 24 hrs by ELISA; format: functional, cell-based; conditions: dose 10-20 µM
[36] = species: Homo sapiens; assay: Binding affinity to carboxylesterase (unknown origin) by fluorescence analysis
[37] = biological target: T2, Cholinesterase; assay: Binding affinity to BChE (unknown origin) in PBS assessed as Michaelis-menten constant by fluorometric method
[38] = tested on: Mus musculus; assay: Antialzheimer activity in APP/PS1 transgenic AD mouse model assessed as improvement in learning administered intravenously once every 2 days for 10 times followed by morris water maze training from day 21 to 25 and measured on day 26 by Morris water maze test; format: functional, organism-based; conditions: route iv, time 26.0 day
[39] = species: Homo sapiens; assay: Binding affinity to ALP (unknown origin) by fluorescence analysis
[40] = Stability of compound in male ICR mouse brain at 100 uM, iv measured within 5 mins by fluorescence microplate reader; format: ADME, organism-based
[41] = tested on: Mus musculus; assay: Antialzheimer activity in APP/PS1 transgenic AD mouse model assessed as improvement in learning administered intravenously once every 2 days for 10 times and measured on day 26 by Y maze test; format: functional, organism-based; conditions: route iv, time 26.0 day
[42] = tested on: Mus musculus; assay: Antialzheimer activity in APP/PS1 transgenic AD mouse model assessed as improvement in NC scores administered intravenously once every 2 days for 10 times and measured on day 27 by Nest construction test; format: functional, organism-based; conditions: route iv, time 27.0 day
[43] = biological target: T2, Cholinesterase; assay: Binding affinity to BChE (unknown origin) assessed as enzyme mediated compound hydrolysis measured after 5 min by HPLC analysis relative to control; set-up: scale not given: the % may be the effect or the level left
[44] = biological target: Cholinesterase (Equus caballus, UniProt P81908); assay: Stability of compound assessed as horse serum BChE-mediated compound hydrolysis by fluorescence based analysis; format: ADME
Sequence of Cholinesterase (Equus caballus, UniProt P81908) (P81908 whole entry): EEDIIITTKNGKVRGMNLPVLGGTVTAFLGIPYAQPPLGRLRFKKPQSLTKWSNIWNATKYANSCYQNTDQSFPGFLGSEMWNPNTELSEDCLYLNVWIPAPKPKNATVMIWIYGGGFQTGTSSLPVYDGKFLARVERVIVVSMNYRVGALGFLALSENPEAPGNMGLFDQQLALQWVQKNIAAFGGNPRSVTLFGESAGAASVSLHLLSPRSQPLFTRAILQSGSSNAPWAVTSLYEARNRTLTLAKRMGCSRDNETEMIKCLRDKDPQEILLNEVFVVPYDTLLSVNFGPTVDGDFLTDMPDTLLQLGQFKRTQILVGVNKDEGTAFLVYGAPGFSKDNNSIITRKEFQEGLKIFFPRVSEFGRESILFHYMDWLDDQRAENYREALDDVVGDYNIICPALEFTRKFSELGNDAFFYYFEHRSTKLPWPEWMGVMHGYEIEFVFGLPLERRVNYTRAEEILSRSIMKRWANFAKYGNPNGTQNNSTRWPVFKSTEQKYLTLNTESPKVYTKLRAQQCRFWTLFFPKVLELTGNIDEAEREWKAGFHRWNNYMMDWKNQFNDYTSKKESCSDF

[45] = biological target: T1, Acetylcholinesterase; assay: Stability of compound assessed as human serum AChE-mediated compound hydrolysis by fluorescence based analysis; format: ADME

SMILES: Nc1c2c(nc3ccccc13)CCCC2 [TACRINE]
- Activity [1]: Non-Toxic

SMILES: CCN(CC)Cc1ccccc1CNC(=O)c1cccc(NC(=O)c2ccc(F)cc2)c1
- Activity [1]: Non-Toxic

SMILES: C#CCCC[N+]1=C(/C=C/C2=C3Oc4cc(OC(=O)C5CC5)ccc4C=C3CCC2)C(C)(C)c2ccccc21.[I-]
- Activity [2]: inactive
- Activity [3]: Active
- Activity [4]: inactive
- Activity [5]: Active
- Stability [6]: Unstable
- IC50 [7]: > 100000 nM
- fold change (FC) [8]: 21
- Drug uptake [9]: Not Active
- Activity [10]: Active
- Activity [11]: 50%
- Papp at 18 h [12]: 5.97 ×10⁻⁶ cm/s
- Activity [13]: Active
- Activity [14]: Active
- Drug uptake [15]: Active
- Activity [16]: inactive
- Activity [17]: Active
- Selectivity ratio [18]: 31.4
- Activity [19]: inactive
- Stability [20]: Stable
- Activity [21]: Non-Toxic
- Stability [22]: Stable
- Activity [23]: Active
- Activity [24]: Dose-Dependent Effect
- Stability [25]: Unstable
- Activity [26]: inactive
- Activity [27]: Active
- Activity [28]: 2.08 µM/min
- Activity [29]: inactive
- Activity [30]: Active
- Drug uptake [31]: Not Active
- Activity [32]: inactive
- Activity [33]: inactive
- Activity [34]: inactive
- Activity [35]: inactive
- Activity [36]: inactive
- Activity [37]: 9.07 µM
- Activity [38]: inactive
- Activity [39]: inactive
- Stability [40]: Stable
- Activity [41]: inactive
- Activity [1]: Toxic
- Activity [42]: inactive
- Activity [43]: > 90%

SMILES: C#CCCC[N+]1=C(/C=C/C2=C3Oc4cc(OC(C)=O)ccc4C=C3CCC2)C(C)(C)c2ccccc21.[I-]
- Stability [44]: Unstable
- Stability [45]: Unstable

SMILES: CCN(CC)Cc1ccccc1CNC(=O)c1cccc(NC(=O)c2cccc(C(=O)O)c2)c1
- IC50 [7]: 1.23 nM
